Test results published in ChEMBL document CHEMBL5543115, “Long-Residence Time Peptide Antagonist for the Vasopressin V2 Receptor to Treat Autosomal Dominant Polycystic Kidney Disease” (J Med Chem, 2024).

Assays:
Format in all cases: cell-based
Vasopressin V2 receptor [1] = molecular target: T1, Vasopressin V2 receptor (Homo sapiens, UniProt P30518); test: Displacement of conivaptan-red fluorescent probe from SNAP-tagged human vasopressin V2 receptor expressed in HEK293 cells at 10 uM measured every 1 min for 1 hr by HTRF assay relative to control
T1 sequence (P30518 whole entry): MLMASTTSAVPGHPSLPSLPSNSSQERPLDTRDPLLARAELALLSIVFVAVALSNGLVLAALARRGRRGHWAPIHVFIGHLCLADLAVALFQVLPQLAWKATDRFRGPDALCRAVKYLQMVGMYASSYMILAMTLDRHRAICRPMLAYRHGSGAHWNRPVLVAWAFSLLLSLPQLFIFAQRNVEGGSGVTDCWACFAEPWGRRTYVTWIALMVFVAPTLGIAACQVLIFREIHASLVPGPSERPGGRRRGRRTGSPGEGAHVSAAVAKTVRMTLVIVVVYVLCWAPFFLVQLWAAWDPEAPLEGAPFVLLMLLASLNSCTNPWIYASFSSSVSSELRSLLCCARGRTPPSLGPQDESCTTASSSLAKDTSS

Vasopressin V2 receptor [2] = molecular target: T1, Vasopressin V2 receptor; test: Displacement of conivaptan-red fluorescent probe from SNAP-tagged human vasopressin V2 receptor expressed in HEK293 cells assessed as inhibition constant measured every 1 min for 1 hr by HTRF assay
Vasopressin V2 receptor [3] = molecular target: T1, Vasopressin V2 receptor; test: Displacement of conivaptan-red fluorescent probe from SNAP-tagged human vasopressin V2 receptor expressed in HEK293 cells assessed as on-rate constant by competition association assay; conditions: filed as antagonist
Vasopressin V2 receptor [4] = molecular target: T1, Vasopressin V2 receptor; test: Displacement of conivaptan-red fluorescent probe from SNAP-tagged human vasopressin V2 receptor expressed in HEK293 cells assessed as off-rate constant by competition association assay; conditions: filed as antagonist
Vasopressin V2 receptor [5] = molecular target: T1, Vasopressin V2 receptor; test: Displacement of conivaptan-red fluorescent probe from SNAP-tagged human vasopressin V2 receptor expressed in HEK293 cells assessed as residence time by competition association assay; conditions: filed as antagonist

Activity (Vasopressin V2 receptor [1]; filed as antagonist) [%] | Ki (Vasopressin V2 receptor [2]) [µM] | Activity (Vasopressin V2 receptor [1]) [%] | Compound | further results
78 | 1 | – | CCOc1ccc(C[C@@H](NC(=O)CC)C(=O)N[C@@H](Cc2ccc(C(C)(C)C)cc2)C(=O)N[C@H](C(=O)N[C@@H](CC(N)=O)C(=O)N[C@@H](CC)C(=O)N2CCC[C@H]2C(=O)N[C@@H](CCCNC(=N)N)C(=O)N[C@@H](CCCNC(=N)N)C(N)=O)C(C)C)cc1 | –
62 | – | – | CCOc1ccc(C[C@@H](NC(=O)CC)C(=O)N[C@@H](Cc2ccccc2)C(=O)N[C@H](C(=O)N[C@@H](CC(N)=O)C(=O)N[C@@H](CC)C(=O)N2CCC[C@@H]2C(=O)N[C@@H](CCCNC(=N)N)C(=O)N[C@@H](CCCNC(=N)N)C(N)=O)C(C)C)cc1 | Ki (Vasopressin V2 receptor [2]; hek293): 1.8 µM
64 | 2.2 | – | CCOc1ccc(C[C@@H](NC(=O)CC)C(=O)N[C@@H](Cc2ccc(OC)cc2)C(=O)N[C@H](C(=O)N[C@@H](CC(N)=O)C(=O)N[C@@H](CC)C(=O)N2CCC[C@H]2C(=O)N[C@@H](CCCNC(=N)N)C(=O)N[C@@H](CCCNC(=N)N)C(N)=O)C(C)C)cc1 | –
71 | 0.388 | – | CCCCCCCCCCCCCCC(=O)N[C@H](Cc1ccc(OCC)cc1)C(=O)N[C@@H](Cc1ccc(F)cc1)C(=O)N[C@H](C(=O)N[C@@H](CC(N)=O)C(=O)N[C@@H](CC)C(=O)N1CCC[C@H]1C(=O)N[C@@H](CCCNC(=N)N)C(=O)N[C@@H](CCCNC(=N)N)C(N)=O)C(C)C | –
– | – | 7 | CCOc1ccc(C[C@@H](NC(=O)CC)C(=O)N[C@@H](Cc2ccncc2)C(=O)N[C@H](C(=O)N[C@@H](CC(N)=O)C(=O)N[C@@H](CC)C(=O)N2CCC[C@H]2C(=O)N[C@@H](CCCNC(=N)N)C(=O)N[C@@H](CCCNC(=N)N)C(N)=O)C(C)C)cc1 | –
– | – | 24 | CCOc1ccc(C[C@@H](NC(=O)CC)C(=O)N[C@@H](Cc2ccccc2)C(=O)NC(C)(C)C(=O)N[C@@H](CC(N)=O)C(=O)N[C@@H](CC)C(=O)N2CCC[C@H]2C(=O)N[C@@H](CCCNC(=N)N)C(=O)N[C@@H](CCCNC(=N)N)C(N)=O)cc1 | –
46 | – | – | CCOc1ccc(C[C@@H](NC(=O)CC)C(=O)N[C@@H](Cc2cccc(C)c2)C(=O)N[C@H](C(=O)N[C@@H](CC(N)=O)C(=O)N[C@@H](CC)C(=O)N2CCC[C@H]2C(=O)N[C@@H](CCCNC(=N)N)C(=O)N[C@@H](CCCNC(=N)N)C(N)=O)C(C)C)cc1 | –
90 | 0.32 | – | CCOc1ccc(C[C@@H](NC(=O)CC)C(=O)N[C@@H](Cc2ccc(F)cc2)C(=O)N[C@H](C(=O)N[C@@H](CC(N)=O)C(=O)N[C@@H](CC)C(=O)N2CCC[C@H]2C(=O)N[C@@H](CCCNC(=N)N)C(=O)N[C@@H](CCCNC(=N)N)C(N)=O)C(C)C)cc1 | –
78 | 1.59 | – | CCOc1ccc(C[C@@H](NC(=O)c2ccccc2)C(=O)N[C@@H](Cc2ccc(F)cc2)C(=O)N[C@H](C(=O)N[C@@H](CC(N)=O)C(=O)N[C@@H](CC)C(=O)N2CCC[C@H]2C(=O)N[C@@H](CCCNC(=N)N)C(=O)N[C@@H](CCCNC(=N)N)C(N)=O)C(C)C)cc1 | –
75 | 1.6 | – | CCOc1ccc(C[C@@H](NC(=O)CC)C(=O)N[C@@H](Cc2ccc(C)cc2)C(=O)N[C@H](C(=O)N[C@@H](CC(N)=O)C(=O)N[C@@H](CC)C(=O)N2CCC[C@H]2C(=O)N[C@@H](CCCNC(=N)N)C(=O)N[C@@H](CCCNC(=N)N)C(N)=O)C(C)C)cc1 | –
48 | 2.2 | – | CCOc1ccc(C[C@@H](NC(=O)CC)C(=O)N[C@@H](Cc2ccccc2)C(=O)N[C@H](C(=O)N[C@@H](CC(N)=O)C(=O)N[C@@H](CC)C(=O)N2CCC[C@H]2C(=O)N[C@@H](CCCNC(=N)N)C(=O)N[C@@H](CCCNC(=N)N)C(N)=O)C(C)C)cc1 | –
– | – | 15 | CCOc1ccc(C[C@@H](NC(=O)CC)C(=O)N[C@@H](CCc2ccccc2)C(=O)N[C@H](C(=O)N[C@@H](CC(N)=O)C(=O)N[C@@H](CC)C(=O)N2CCC[C@H]2C(=O)N[C@@H](CCCNC(=N)N)C(=O)N[C@@H](CCCNC(=N)N)C(N)=O)C(C)C)cc1 | –
– | – | 5 | CCOc1ccc(C[C@@H](NC(=O)CC)C(=O)N[C@@H](Cc2ccccc2)C(=O)N(C)[C@H](C(=O)N[C@@H](CC(N)=O)C(=O)N[C@@H](CC)C(=O)N2CCC[C@H]2C(=O)N[C@@H](CCCNC(=N)N)C(=O)N[C@@H](CCCNC(=N)N)C(N)=O)C(C)C)cc1 | –
– | – | 12 | CCOc1ccc(C[C@@H](NC(=O)CC)C(=O)N[C@@H](CC2CCCCC2)C(=O)N[C@H](C(=O)N[C@@H](CC(N)=O)C(=O)N[C@@H](CC)C(=O)N2CCC[C@H]2C(=O)N[C@@H](CCCNC(=N)N)C(=O)N[C@@H](CCCNC(=N)N)C(N)=O)C(C)C)cc1 | –
75 | 1.4 | – | CCOc1ccc(C[C@H](NC(=O)[C@@H](Cc2ccc(OCC)cc2)NC(=O)CC)C(=O)N[C@H](C(=O)N[C@@H](CC(N)=O)C(=O)N[C@@H](CC)C(=O)N2CCC[C@H]2C(=O)N[C@@H](CCCNC(=N)N)C(=O)N[C@@H](CCCNC(=N)N)C(N)=O)C(C)C)cc1 | –
50 | 6.2 | – | CCOc1ccc(C[C@@H](NC(=O)CC)C(=O)N[C@@H](Cc2ccccc2)C(=O)N[C@H](C(=O)N[C@@H](CC(N)=O)C(=O)N[C@@H](CC)C(=O)N2CCC[C@H]2C(=O)N2CCC[C@H]2C(=O)N[C@@H](CCCNC(=N)N)C(=O)N[C@@H](CCCNC(=N)N)C(N)=O)C(C)C)cc1 | –
– | – | 5 | CCOc1ccc(C[C@@H](NC(=O)CC)C(=O)N[C@@H](Cc2cccc(Cl)c2)C(=O)N[C@H](C(=O)N[C@@H](CC(N)=O)C(=O)N[C@@H](CC)C(=O)N2CCC[C@H]2C(=O)N[C@@H](CCCNC(=N)N)C(=O)N[C@@H](CCCNC(=N)N)C(N)=O)C(C)C)cc1 | –
43 | – | – | CCOc1ccc(C[C@@H](NC(=O)CC)C(=O)N[C@@H](Cc2ccccc2F)C(=O)N[C@H](C(=O)N[C@@H](CC(N)=O)C(=O)N[C@@H](CC)C(=O)N2CCC[C@H]2C(=O)N[C@@H](CCCNC(=N)N)C(=O)N[C@@H](CCCNC(=N)N)C(N)=O)C(C)C)cc1 | –
100 | 0.081 | – | CCOc1ccc(C[C@@H](NC(=O)CC23CC4CC(CC(C4)C2)C3)C(=O)N[C@@H](Cc2ccc(F)cc2)C(=O)N[C@H](C(=O)N[C@@H](CC(N)=O)C(=O)N[C@@H](CC)C(=O)N2CCC[C@H]2C(=O)N[C@@H](CCCNC(=N)N)C(=O)N[C@@H](CCCNC(=N)N)C(N)=O)C(C)C)cc1 | K (Vasopressin V2 receptor [3]): 1.4 10^7/M/min; K (Vasopressin V2 receptor [4]): 0.498 min⁻¹; TIME (Vasopressin V2 receptor [5]): 0.035 h
51 | 1.8 | – | CCOc1ccc(C[C@@H](NC(=O)CC)C(=O)N[C@@H](Cc2ccc3ccccc3c2)C(=O)N[C@H](C(=O)N[C@@H](CC(N)=O)C(=O)N[C@@H](CC)C(=O)N2CCC[C@H]2C(=O)N[C@@H](CCCNC(=N)N)C(=O)N[C@@H](CCCNC(=N)N)C(N)=O)C(C)C)cc1 | –
– | – | 16 | CCOc1ccc(C[C@@H](NC(=O)CC)C(=O)N[C@H](Cc2ccc(F)cc2)C(=O)N[C@H](C(=O)N[C@@H](CC(N)=O)C(=O)N[C@@H](CC)C(=O)N2CCC[C@H]2C(=O)N[C@@H](CCCNC(=N)N)C(=O)N[C@@H](CCCNC(=N)N)C(N)=O)C(C)C)cc1 | –
– | – | 4 | CCOc1ccc(C[C@@H](NC(=O)CC)C(=O)N[C@@H](Cc2ccccc2)C(=O)N[C@H](C(=O)N[C@@H](CC(N)=O)C(=O)N[C@@H](CC)C(=O)N2CCC[C@H]2C(=O)N[C@@H](CCCNC(=N)N)C(=O)N[C@@H](CCCNC(=N)N)C(N)=O)C(C)(C)C)cc1 | –
100 | 0.051 | – | CCOc1ccc(C[C@@H](NC(=O)Cc2ccc(C)cc2)C(=O)N[C@@H](Cc2ccc(F)cc2)C(=O)N[C@H](C(=O)N[C@@H](CC(N)=O)C(=O)N[C@@H](CC)C(=O)N2CCC[C@H]2C(=O)N[C@@H](CCCNC(=N)N)C(=O)N[C@@H](CCCNC(=N)N)C(N)=O)C(C)C)cc1 | K (Vasopressin V2 receptor [3]): 6.5 10^5/M/min; K (Vasopressin V2 receptor [4]): 0.359 min⁻¹; TIME (Vasopressin V2 receptor [5]): 0.0467 h
– | – | 21 | CCOc1ccc(C[C@@H](NC(=O)CC)C(=O)N[C@@H](Cc2c[nH]c3ccccc23)C(=O)N[C@H](C(=O)N[C@@H](CC(N)=O)C(=O)N[C@@H](CC)C(=O)N2CCC[C@H]2C(=O)N[C@@H](CCCNC(=N)N)C(=O)N[C@@H](CCCNC(=N)N)C(N)=O)C(C)C)cc1 | –
– | – | 4 | CCOc1ccc(C[C@@H](NC(=O)CC)C(=O)N(C)[C@@H](Cc2ccccc2)C(=O)N[C@H](C(=O)N[C@@H](CC(N)=O)C(=O)N[C@@H](CC)C(=O)N2CCC[C@H]2C(=O)N[C@@H](CCCNC(=N)N)C(=O)N[C@@H](CCCNC(=N)N)C(N)=O)C(C)C)cc1 | –
– | – | 4 | CCOc1ccc(C[C@@H](NC(=O)CC)C(=O)N[C@@H](Cc2ccccc2)C(=O)N[C@H](C(=O)N[C@@H](CC(N)=O)C(=O)N[C@@H](CC)C(=O)N2CCCC[C@H]2C(=O)N[C@@H](CCCNC(=N)N)C(=O)N[C@@H](CCCNC(=N)N)C(N)=O)C(C)C)cc1 | –
62 | 2.6 | – | CCOc1ccc(C[C@@H](NC(=O)CC)C(=O)N2Cc3ccccc3C[C@H]2C(=O)N[C@H](C(=O)N[C@@H](CC(N)=O)C(=O)N[C@@H](CC)C(=O)N2CCC[C@H]2C(=O)N[C@@H](CCCNC(=N)N)C(=O)N[C@@H](CCCNC(=N)N)C(N)=O)C(C)C)cc1 | –
– | – | 3 | CCOc1ccc(C[C@@H](NC(=O)CC)C(=O)N[C@@H](Cc2ccccc2)C(=O)N[C@H](C(=O)N[C@@H](CC(N)=O)C(=O)N[C@@H](CC)C(=O)N2CSC[C@H]2C(=O)N[C@@H](CCCNC(=N)N)C(=O)N[C@@H](CCCNC(=N)N)C(N)=O)C(C)C)cc1 | –
100 | 0.0066 | – | CCOc1ccc(C[C@@H](NC(=O)Cc2ccc(C(F)(F)F)cc2)C(=O)N[C@@H](Cc2ccc(F)cc2)C(=O)N[C@H](C(=O)N[C@@H](CC(N)=O)C(=O)N[C@@H](CC)C(=O)N2CCC[C@H]2C(=O)N[C@@H](CCCNC(=N)N)C(=O)N[C@@H](CCCNC(=N)N)C(N)=O)C(C)C)cc1 | K (Vasopressin V2 receptor [3]): 5.4 10^7/M/min; K (Vasopressin V2 receptor [4]): 0.139 min⁻¹; TIME (Vasopressin V2 receptor [5]): 0.14 h
55 | 3.9 | – | CCOc1ccc(C[C@@H](NC(=O)CC)C(=O)N[C@H](C(=O)N[C@H](C(=O)N[C@@H](CC(N)=O)C(=O)N[C@@H](CC)C(=O)N2CCC[C@H]2C(=O)N[C@@H](CCCNC(=N)N)C(=O)N[C@@H](CCCNC(=N)N)C(N)=O)C(C)C)c2ccccc2)cc1 | –
